Results taken from ChEMBL document CHEMBL1152667, “Synthesis and radiopharmacological investigation of 3-[4'-[(18)F]fluorobenzylidene]indolin-2-one as possible tyrosine kinase inhibitor” (Bioorg Med Chem, 2009).

How the values were obtained:
[1] = cells; details: Endothelial cell
[2] = target: Vascular endothelial growth factor receptor 2 (Homo sapiens, UniProt P35968); test: Inhibition of FLK1
Chain of Vascular endothelial growth factor receptor 2 (P35968 whole entry): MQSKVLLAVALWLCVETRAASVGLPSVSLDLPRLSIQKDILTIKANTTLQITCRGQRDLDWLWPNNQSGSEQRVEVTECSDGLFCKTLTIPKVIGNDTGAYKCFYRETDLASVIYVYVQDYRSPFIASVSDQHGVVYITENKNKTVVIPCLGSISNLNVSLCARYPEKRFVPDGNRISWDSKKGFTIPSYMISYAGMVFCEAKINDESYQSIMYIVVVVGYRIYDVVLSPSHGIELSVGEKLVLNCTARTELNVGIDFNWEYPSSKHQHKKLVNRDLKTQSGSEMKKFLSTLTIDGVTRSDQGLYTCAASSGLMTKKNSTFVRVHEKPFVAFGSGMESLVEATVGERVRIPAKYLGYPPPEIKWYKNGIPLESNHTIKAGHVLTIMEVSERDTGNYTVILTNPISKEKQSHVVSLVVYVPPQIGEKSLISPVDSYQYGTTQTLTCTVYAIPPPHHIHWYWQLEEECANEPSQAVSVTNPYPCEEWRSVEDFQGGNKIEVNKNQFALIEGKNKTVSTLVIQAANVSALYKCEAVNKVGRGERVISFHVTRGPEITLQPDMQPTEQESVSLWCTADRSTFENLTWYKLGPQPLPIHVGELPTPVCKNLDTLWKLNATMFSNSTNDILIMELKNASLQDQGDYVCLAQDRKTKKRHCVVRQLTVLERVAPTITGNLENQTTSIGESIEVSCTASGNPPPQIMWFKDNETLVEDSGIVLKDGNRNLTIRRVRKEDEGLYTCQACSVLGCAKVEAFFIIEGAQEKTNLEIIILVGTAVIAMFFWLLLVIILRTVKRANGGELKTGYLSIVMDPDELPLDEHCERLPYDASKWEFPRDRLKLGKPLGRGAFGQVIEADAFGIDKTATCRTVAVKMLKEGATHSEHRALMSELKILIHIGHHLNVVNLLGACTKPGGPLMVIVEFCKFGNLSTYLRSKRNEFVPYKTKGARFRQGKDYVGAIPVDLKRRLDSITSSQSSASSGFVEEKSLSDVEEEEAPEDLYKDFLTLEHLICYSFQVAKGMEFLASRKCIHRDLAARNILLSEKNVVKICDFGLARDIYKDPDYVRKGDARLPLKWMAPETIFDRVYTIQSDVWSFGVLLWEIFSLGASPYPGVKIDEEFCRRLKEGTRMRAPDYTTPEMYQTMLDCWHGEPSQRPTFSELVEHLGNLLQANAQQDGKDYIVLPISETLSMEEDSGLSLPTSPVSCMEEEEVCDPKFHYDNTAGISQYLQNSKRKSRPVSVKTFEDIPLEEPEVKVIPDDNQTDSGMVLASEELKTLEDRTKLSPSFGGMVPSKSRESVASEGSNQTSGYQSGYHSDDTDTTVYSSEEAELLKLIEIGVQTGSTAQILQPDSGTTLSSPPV

IC50 [1] [µM] | IC50 [2] [µM] | Compound
< 0.8 |  | Cc1cc(C)c(/C=C2\C(=O)Nc3ccccc32)[nH]1 [SEMAXANIB]
5.1 | 9.6 | O=C1Nc2ccccc2/C1=C/c1ccc(F)cc1
